Drawing on patent publication US12098148B2, “Therapeutic compounds” (C4X Discovery Limited, priority 2018, dated 2024), this text covers IC50 and EC50 for 18 molecules.

In assay [1] the target is human KEAP1 (N-term, residues 321-609) (Homo sapiens, UniProt Q14145). Description: biochemical.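 Further: fluorescence polarization competition assay of Kelch domain binding to NRF2, 12-point 1:3 dilution series from 10 µM, read after 1 h at room temperature, floor 10 nM.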
Assay [2] concerns NQO1 mRNA in BEAS-2B cells. Put plainly: Beas2B NQO1 mRNA cell based assay. Also on record: species or system human. Particulars: Homo sapiens, BEAS-2B, 24 h, 24 h compound treatment, increase in NQO1 mRNA vs vehicle (0.1% DMSO), read-out: EC50. The method, boiled down: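 Relative NQO1 transcript level derived by ΔΔCT with human β-actin as internal control, using direct-lysate one-step RT-qPCR. Cells were BEAS-2B, plated overnight then treated with compound for 24 h.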

Sequence of human KEAP1 (N-term, residues 321-609) (Q14145 321-609): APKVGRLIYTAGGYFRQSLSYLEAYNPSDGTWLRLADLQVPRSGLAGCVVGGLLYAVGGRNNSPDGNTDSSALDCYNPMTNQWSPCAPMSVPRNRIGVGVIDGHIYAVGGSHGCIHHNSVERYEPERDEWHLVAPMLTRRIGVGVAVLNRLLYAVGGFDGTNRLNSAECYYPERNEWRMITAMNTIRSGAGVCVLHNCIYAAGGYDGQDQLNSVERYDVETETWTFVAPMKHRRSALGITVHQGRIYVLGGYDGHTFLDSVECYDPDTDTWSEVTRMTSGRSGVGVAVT

For orientation: IC50 means the point on the concentration scale where inhibition reaches its midpoint. What is called EC50 is the concentration at which the effect is half-maximal. On to `Cc1cc(COc2ccc(Cl)c3c2[C@@H](CN2CCCC2=O)N(C(=O)[C@@H]2CCCC[C@]2(C)C(=O)O)CC3)no1` [Example 166, (1S,2R)-2-((S)-5-chloro-8-((5-methylisoxazol-3-yl)methoxy)-1-((2-oxopyrrolidin-1-yl)methyl)-1,2,3,4-tetrahydroisoquinoline-2-carbonyl)-1-methylcyclohexane-1-carboxylic acid], for which the IC50 in assay [1] is 7.5 nM. The EC50 in assay [2] is 40 nM.
Regarding `Cc1noc(COc2ccc(Cl)c3c2[C@@H](CN2CCCC2=O)N(C(=O)[C@@H]2CCCC[C@]2(C)C(=O)O)CC3)n1` [Example 167, (1S,2R)-2-((S)-5-chloro-8-((3-methyl-1,2,4-oxadiazol-5-yl)methoxy)-1-((2-oxopyrrolidin-1-yl)methyl)-1,2,3,4-tetrahydroisoquinoline-2-carbonyl)-1-methylcyclohexane-1-carboxylic acid], in assay [1], the IC50 was 16 nM. Besides, the EC50 in assay [2] is 280 nM.
Molecule `Cc1nc(COc2ccc(Cl)c3c2[C@@H](CN2CCCC2=O)N(C(=O)[C@@H]2CCCC[C@]2(C)C(=O)O)CC3)no1` [Example 168, (1S,2R)-2-((S)-5-chloro-8-((5-methyl-1,2,4-oxadiazol-3-yl)methoxy)-1-((2-oxopyrrolidin-1-yl)methyl)-1,2,3,4-tetrahydroisoquinoline-2-carbonyl)-1-methylcyclohexane-1-carboxylic acid] registered an IC50 in assay [1] of 8.5 nM. For the same molecule, in assay [2], the EC50 stood at 85 nM.
`Cn1nnc(COc2ccc(Cl)c3c2[C@@H](CN2CCCC2=O)N(C(=O)[C@H]2CCCC[C@]2(C)C(=O)O)CC3)c1C(F)(F)F` [Example 169, (1S,2S)-2-((S)-5-chloro-8-((1-methyl-5-(trifluoromethyl)-1H-1,2,3-triazol-4-yl)methoxy)-1-((2-oxopyrrolidin-1-yl)methyl)-1,2,3,4-tetrahydroisoquinoline-2-carbonyl)-1-methylcyclohexane-1-carboxylic acid]: in assay [1], half-maximal inhibition (IC50) was put at 62 nM. For the same molecule, in assay [2], the EC50 turned out to be 140 nM.
On to `C[C@]1(C(=O)O)CCCC[C@H]1C(=O)N1CCc2c(Cl)ccc(OCc3nnn4c3CCCC4)c2[C@H]1CN1CC2(CC2)CC1=O` [Example 170, (1S,2R)-2-((S)-5-chloro-1-((6-oxo-5-azaspiro[2.4]heptan-5-yl)methyl)-8-((4,5,6,7-tetrahydro-[1,2,3]triazolo[1,5-a]pyridin-3-yl)methoxy)-1,2,3,4-tetrahydroisoquinoline-2-carbonyl)-1-methylcyclohexane-1-carboxylic acid], for which half-maximal inhibition in assay [1] (IC50) required 6.6 nM. The EC50 in assay [2] turned out to be 0.11 nM.
With `C[C@]1(C(=O)O)CCCC[C@H]1C(=O)N1CCc2c(Cl)ccc(OCc3cncnc3C(F)(F)F)c2[C@H]1CN1CC2(CC2)CC1=O` [Example 171, (1S,2R)-2-((S)-5-chloro-1-((6-oxo-5-azaspiro[2.4]heptan-5-yl)methyl)-8-((4-(trifluoromethyl)pyrimidin-5-yl)methoxy)-1,2,3,4-tetrahydroisoquinoline-2-carbonyl)-1-methylcyclohexane-1-carboxylic acid], in assay [1], it took 6.4 nM to reach half-maximal inhibition (IC50). Besides, the EC50 in assay [2] was found to be 19 nM.
The like results for `C[C@]1(C(=O)O)CCCC[C@H]1C(=O)N1CCc2c(Cl)ccc(OCc3nnn(C4CC4)c3C(F)F)c2[C@H]1CN1CC2(CC2)CC1=O` [Example 172, (1S,2R)-2-((S)-5-chloro-8-((1-cyclopropyl-5-(difluoromethyl)-1H-1,2,3-triazol-4-yl)methoxy)-1-((6-oxo-5-azaspiro [2.4]heptan-5-yl)methyl)-1,2,3,4-tetrahydroisoquinoline-2-carbonyl)-1-methylcyclohexane-1-carboxylic acid] were, in that order, 6 nM and 1.1 nM.
In the same order, the values of `CN(C)CCn1cc(COc2ccc(Cl)c3c2[C@@H](CN2CC4(CC4)CC2=O)N(C(=O)[C@@H]2CCCC[C@]2(C)C(=O)O)CC3)nn1` [Example 173, (1S,2R)-2-((S)-5-chloro-8-((1-(2-(dimethylamino)ethyl)-1H-1,2,3-triazol-4-yl)methoxy)-1-((6-oxo-5-azaspiro[2.4]heptan-5-yl)methyl)-1,2,3,4-tetrahydroisoquinoline-2-carbonyl)-1-methylcyclohexane-1-carboxylic acid] are 6.5 nM and 35 nM.
In the same order, the values of `Cc1ccc(OCc2nnn(C)c2C(F)(F)F)c2c1CCN(C(=O)[C@@H]1CCCC[C@]1(C)C(=O)O)[C@@H]2CN1CCCC1=O` [Example 174, (1S,2R)-1-Methyl-2-((S)-5-methyl-8-((1-methyl-5-(trifluoromethyl)-1H-1,2,3-triazol-4-yl)methoxy)-1-((2-oxopyrrolidin-1-yl)methyl)-1,2,3,4-tetrahydroisoquinoline-2-carbonyl)cyclohexane-1-carboxylic acid] are 11 nM and 6.6 nM.
`Cn1cnnc1COc1ccc(Cl)c2c1[C@@H](CN1CC3(CC3)CC1=O)N(C(=O)[C@@H]1CCCC[C@]1(C)C(=O)O)CC2` [Example 175, (1S,2R)-2-((S)-5-chloro-8-((4-methyl-4H-1,2,4-triazol-3-yl)methoxy)-1-((6-oxo-5-azaspiro [2.4]heptan-5-yl)methyl)-1,2,3,4-tetrahydroisoquinoline-2-carbonyl)-1-methylcyclohexane-1-carboxylic acid] had an IC50 in assay [1] of 14 nM. The EC50 in assay [2] came out at 35 nM.
`C[C@]1(C(=O)O)CCCC[C@H]1C(=O)N1CCc2c(Cl)ccc(OCc3nnc4n3CCOC4)c2[C@H]1CN1CC2(CC2)CC1=O` [Example 176, (1S,2R)-2-((S)-5-chloro-8-((5,6-dihydro-8H-[1,2,4]triazolo[3,4-c][1,4]oxazin-3-yl)methoxy)-1-((6-oxo-5-azaspiro [2.4]heptan-5-yl)methyl)-1,2,3,4-tetrahydroisoquinoline-2-carbonyl)-1-methylcyclohexane-1-carboxylic acid] had an IC50 in assay [1] of 6.2 nM. Also, the EC50 in assay [2] is 2.8 nM.
As to `Cc1nnc(COc2ccc(Cl)c3c2[C@@H](CN2CC4(CC4)CC2=O)N(C(=O)[C@@H]2CCCC[C@]2(C)C(=O)O)CC3)n1C1CC1` [Example 177, (1S,2R)-2-((S)-5-chloro-8-((4-cyclopropyl-5-methyl-4H-1,2,4-triazol-3-yl)methoxy)-1-((6-oxo-5-azaspiro[2.4]heptan-5-yl)methyl)-1,2,3,4-tetrahydroisoquinoline-2-carbonyl)-1-methylcyclohexane-1-carboxylic acid], the IC50 in assay [1] stood at 5.3 nM. Further, the EC50 in assay [2] came out at 2.2 nM.
In the same order, the values of `Cn1nnc(COc2ccc(F)c3c2[C@@H](CN2CCCC2=O)N(C(=O)[C@@H]2CCCC[C@]2(C)C(=O)O)CC3)c1C(F)(F)F` [Example 178, (1S,2R)-2-((S)-5-fluoro-8-((1-methyl-5-(trifluoromethyl)-1H-1,2,3-triazol-4-yl)methoxy)-1-((2-oxopyrrolidin-1-yl)methyl)-1,2,3,4-tetrahydroisoquinoline-2-carbonyl)-1-methylcyclohexane-1-carboxylic acid] are 6.4 nM and 13 nM.
Consider `Cc1nnc(COc2ccc(Cl)c3c2[C@@H](CN2CC4(CC4)CC2=O)N(C(=O)[C@@H]2CCCC[C@]2(C)C(=O)O)CC3)n1C` [Example 179, (1S,2R)-2-((S)-5-chloro-8-((4,5-dimethyl-4H-1,2,4-triazol-3-yl)methoxy)-1-((6-oxo-5-azaspiro[2.4]heptan-5-yl)methyl)-1,2,3,4-tetrahydroisoquinoline-2-carbonyl)-1-methylcyclohexane-1-carboxylic acid], for which, in assay [1], the IC50 was 5.3 nM. For the same molecule, the EC50 in assay [2] turned out to be 4.1 nM.
The like results for `C[C@]1(C(=O)O)CCC[C@H]1C(=O)N1CCc2c(Cl)ccc(OCc3nnn4c3CCCC4)c2[C@H]1CN1CC2(CC2)CC1=O` [Example 180, (1S,2R)-2-((S)-5-chloro-1-((6-oxo-5-azaspiro[2.4]heptan-5-yl)methyl)-8-((4,5,6,7-tetrahydro-[1,2,3]triazolo[1,5-a]pyridin-3-yl)methoxy)-1,2,3,4-tetrahydroisoquinoline-2-carbonyl)-1-methylcyclopentane-1-carboxylic acid] were, in that order, 7.6 nM and 1.1 nM.
With `C[C@]1(C(=O)O)CCCC[C@H]1C(=O)N1CCc2c(Cl)ccc(OCc3nnn4c3CCC4)c2[C@H]1CN1CC2(CC2)CC1=O` [Example 181, (1S,2R)-2-((S)-5-chloro-8-((5,6-dihydro-4H-pyrrolo[1,2-c][1,2,3]triazol-3-yl)methoxy)-1-((6-oxo-5-azaspiro [2.4]heptan-5-yl)methyl)-1,2,3,4-tetrahydroisoquinoline-2-carbonyl)-1-methylcyclohexane-1-carboxylic acid], it took 5.1 nM to reach half-maximal inhibition in assay [1] (IC50). For the same molecule, the EC50 in assay [2] turned out to be 0.69 nM.
In turn, `C[C@]1(C(=O)O)CCCC[C@H]1C(=O)N1CCc2c(F)ccc(OCc3nnn4c3CCCC4)c2[C@H]1CN1CC2(CC2)CC1=O` [Example 182, (1S,2R)-2-((S)-5-fluoro-1-((6-oxo-5-azaspiro[2.4]heptan-5-yl)methyl)-8-((4,5,6,7-tetrahydro-[1,2,3]triazolo[1,5-a]pyridin-3-yl)methoxy)-1,2,3,4-tetrahydroisoquinoline-2-carbonyl)-1-methylcyclohexane-1-carboxylic acid] had an IC50 in assay [1] of 5.1 nM. The EC50 in assay [2] was found to be 0.83 nM.
`C[C@]1(C(=O)O)CCCC[C@H]1C(=O)N1CCc2c(Cl)ccc(OCc3nnc4n3CCC4)c2[C@H]1CN1CC2(CC2)CC1=O` [Example 183, (1S,2R)-2-((S)-5-chloro-8-((6,7-dihydro-5H-pyrrolo[2,1-c][1,2,4]triazol-3-yl)methoxy)-1-((6-oxo-5-azaspiro [2.4]heptan-5-yl)methyl)-1,2,3,4-tetrahydroisoquinoline-2-carbonyl)-1-methylcyclohexane-1-carboxylic acid] returned an IC50 in assay [1] of 5.4 nM. Moreover, the concentration for a half-maximal effect (EC50) in assay [2] was 5.8 nM.
